Results from US20160002267A1, “BENZYL-SUBSTITUTED PYRAZOLOPYRIDINES AND USE THEREOF” (BAYER PHARMA AKTIENGESELLSCHAFT, priority 2013, published 2016).

What was measured:
[1] = Determination of pharmacokinetic parameters following intravenous and oral administration; assay type: in vivo, rat; conditions: rats, intravenous administration of 0.3 mg/kg and peroral administration of 1 mg/kg
Experimental: The pharmacokinetic parameters of the compounds of the formula (I) according to the invention are determined in male CD-1 mice, male Wistar rats and female beagles. Intravenous administration is via a formulation of species-specific plasma/DMSO in the case of mice and rats and via a water/PEG400/ethanol formulation in the case of dogs. For all species, oral administration of the dissolved substance via gavage is carried out based on a water/PEG400/ethanol formulation. The removal of blood from rats is simplified by inserting a silicone catheter into the right Vena jugularis externa prior to substance administration. The surgical intervention takes place at least one day prior to the experiment with isofluran anesthesia and administration of an analgetic (atropine/rimadyl (3/1) 0.1 ml s.c.). The removal of blood (generally more than 10 times) takes place in a time window which contains terminal times of at least 24 to a maximum of 72 hours after administration of the substance. The blood is removed into heparinized tubes. The blood plasma is then obtained by centrifugation; if required, it can be stored at −20° C. until further processing.
An internal standard (this can also be a chemically unrelated substance) is added to the samples of the compounds of the formula (I) according to the invention, calibration samples and qualifiers, and the protein is precipitated using excess acetonitrile. After addition of a buffer solution, which is adapted to the LC conditions, and subsequent vortexing, the mixture is centrifuged at 1000 g. The supernatant is examined by LC-MS/MS using C18-reversed-phase columns and variable mobile phase mixtures. The substances are quantified by peak heights or areas using extracted ion chromatograms of specific selected ion monitoring experiments.
The plasma concentration/time plots determined are used to calculate the pharmacokinetic parameters such as AUC (Area Under the Curve), Cmax, t1/2 (terminal half life), F (bioavailability), MRT (mean residence time) and CL (clearance), using a validated pharmacokinetic calculation program.
Since the substance quantification is performed in plasma, it is necessary to determine the blood/plasma distribution of the substance in order to be able to adjust the pharmacokinetic parameters correspondingly. For this purpose, a defined amount of substance is incubated in heparinized whole blood of the species in question in a rocking roller mixer for 20 min. After centrifugation at 1000 g, the plasma concentration is measured (by means of LC-MS/MS; see above) and determined by calculating the quotient of the Cblood/Cplasma values.

guanylate cyclase = target: T1, guanylate cyclase (Rattus norvegicus, UniProt P19686+P20595); assay: Effect on a recombinant guanylate cyclase reporter cell line; assay type: cell-based
T1 construct: expressed in transfected cells; host or cells: recombinant reporter cell line
T1 sequence (P20595 1-619): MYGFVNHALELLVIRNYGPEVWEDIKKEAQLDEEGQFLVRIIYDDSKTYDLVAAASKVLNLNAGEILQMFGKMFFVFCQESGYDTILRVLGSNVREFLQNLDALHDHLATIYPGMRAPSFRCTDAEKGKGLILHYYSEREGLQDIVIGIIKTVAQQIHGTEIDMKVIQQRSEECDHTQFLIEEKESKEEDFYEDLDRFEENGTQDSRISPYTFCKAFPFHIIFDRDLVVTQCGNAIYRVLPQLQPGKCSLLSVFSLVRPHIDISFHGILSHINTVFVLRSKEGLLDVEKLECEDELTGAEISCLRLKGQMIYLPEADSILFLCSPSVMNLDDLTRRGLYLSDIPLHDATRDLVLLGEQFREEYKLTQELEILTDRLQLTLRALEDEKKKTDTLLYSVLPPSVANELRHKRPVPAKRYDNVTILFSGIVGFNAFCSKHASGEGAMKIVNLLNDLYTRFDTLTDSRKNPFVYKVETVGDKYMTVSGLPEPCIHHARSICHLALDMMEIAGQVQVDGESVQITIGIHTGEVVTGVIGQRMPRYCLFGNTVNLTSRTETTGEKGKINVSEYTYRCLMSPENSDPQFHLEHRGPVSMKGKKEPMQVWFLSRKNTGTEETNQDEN
T1 sequence (P19686 1-690): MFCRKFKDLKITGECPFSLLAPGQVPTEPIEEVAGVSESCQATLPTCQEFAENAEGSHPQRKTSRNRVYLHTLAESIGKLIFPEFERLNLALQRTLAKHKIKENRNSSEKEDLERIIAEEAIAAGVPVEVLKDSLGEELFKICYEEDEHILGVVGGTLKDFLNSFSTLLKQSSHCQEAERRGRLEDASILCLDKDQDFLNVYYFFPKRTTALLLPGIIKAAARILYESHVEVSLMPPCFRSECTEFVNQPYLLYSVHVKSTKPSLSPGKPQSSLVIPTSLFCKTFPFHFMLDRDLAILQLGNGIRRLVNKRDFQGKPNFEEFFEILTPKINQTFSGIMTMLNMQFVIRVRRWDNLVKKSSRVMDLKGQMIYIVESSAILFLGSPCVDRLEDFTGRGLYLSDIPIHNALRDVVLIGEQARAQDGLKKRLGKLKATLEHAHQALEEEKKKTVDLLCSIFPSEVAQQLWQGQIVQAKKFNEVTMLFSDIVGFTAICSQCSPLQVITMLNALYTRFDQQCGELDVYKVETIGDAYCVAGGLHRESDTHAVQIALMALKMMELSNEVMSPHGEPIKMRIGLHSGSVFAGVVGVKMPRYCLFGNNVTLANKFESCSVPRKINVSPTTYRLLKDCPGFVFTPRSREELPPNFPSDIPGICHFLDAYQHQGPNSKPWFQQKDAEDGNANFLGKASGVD
Experimental: The cellular activity of the compounds according to the invention is determined using a recombinant guanylate cyclase reporter cell line, as described in F. Wunder et al., Anal. Biochem. 339, 104-112 (2005).

CC1(C(F)(F)F)C(=O)Nc2nc(-c3nn(Cc4ccccc4F)c4ncc(F)cc34)nc(NCCC(F)(F)F)c21 (single isomer, unassigned) [Example 1-1, 2-[5-Fluoro-1-(2-fluorobenzyl)-1H-pyrazolo[3,4-b]pyridin-3-yl]-5-methyl-5-(trifluoromethyl)-4-[(3,3,3-trifluoropropyl)amino]-5,7-dihydro-6H-pyrrolo[2,3-d]pyrimidin-6-one]
MRT ([1]; male, Wistar, rat, plasma): 6.4 h
half-life ([1]; male, Wistar, rat, plasma): 7.8 h
AUCnorm [1]: 0.83 kg·h/L
CLblood [1]: 23.7 mL/min/kg
F [1]: 39.0%
MEC (minimum effective concentration) (guanylate cyclase): 0.1 µM
